Measurements as given in patent US8258115B2, “Stable salts of S-adenosylmethionine and process for the preparation thereof” (priority 2007, dated 2012).

Columns and labels:
Assay type in all cases: physicochemical
[1] = Degradation of the active stereoisomer S,S at 25° C. and 65% R.H.
Protocol: (§1) In the following Tables 14-25, the percentage values are reported of the degradation of the active stereoisomer S,S calculated at 40° C. and 75% R.H. (Tables 14-19) and at 25° C. and 65% R.H.

[2] = Moisture % K.F. of the stability samples; conditions: sample used in the stability test
Protocol: In the following Tables 2-13, the percentage values are repotted which were obtained in the stability tests carried out on the products of examples 1-6. The stability tests were carried out in thermostated heaters at 40° C. and 75% R.H (tables 2-7) as well as 25° C. and 60% R.H. (tables 8-13), preserving the samples in heat-sealed aluminium/aluminium bags according to the following criteria: […]

[3] = Degradation of the active stereoisomer S,S at 40° C. and 75% R.H.
Protocol: as §1

[4] = Stability test in thermostated heaters at 25° C. and 60% R.H., active ingredient %; conditions: heat-sealed aluminium/aluminium bags
Protocol: (§2) In the following Tables 2-13, the percentage values are repotted which were obtained in the stability tests carried out on the products of examples 1-6. The stability tests were carried out in thermostated heaters at 40° C. and 75% R.H (tables 2-7) as well as 25° C. and 60% R.H. (tables 8-13), preserving the samples in heat-sealed aluminium/aluminium bags according to the following criteria: the active ingredient % was determined for every sampling point taken under consideration.

[5] = Stability test in thermostated heaters at 40° C. and 75% R.H., active ingredient %; conditions: heat-sealed aluminium/aluminium bags
Protocol: as §2

| SMILES | percentage of the active S,S stereoisomer remaining ([1]; 30 days) | percentage of the active S,S stereoisomer remaining ([1]; 90 days) | percentage of the active S,S stereoisomer remaining ([1]; 180 days) | percentage of the active S,S stereoisomer remaining ([1]; 360 days) | percentage of the active S,S stereoisomer remaining ([1]; 720 days) | percentage of the active S,S stereoisomer remaining ([1]; T = 0) | Moisture % K.F. [2] | percentage of active S,S stereoisomer remaining ([3]; 30 days) | percentage of active S,S stereoisomer remaining ([3]; 60 days) | percentage of active S,S stereoisomer remaining ([3]; 90 days) | percentage of active S,S stereoisomer remaining ([3]; 120 days) | percentage of active S,S stereoisomer remaining ([3]; 180 days) | percentage of active S,S stereoisomer remaining ([3]; T = 0) | stability test percentage value (active ingredient %), 30 days [4] | stability test percentage value (active ingredient %), 90 days [4] | stability test percentage value (active ingredient %), 180 days [4] | stability test percentage value (active ingredient %), 360 days [4] | stability test percentage value (active ingredient %), 720 days [4] | stability test percentage value (active ingredient %), 30 days [5] | stability test percentage value (active ingredient %), 60 days [5] | further results |
| --- | --- | --- | --- | --- | --- | --- | --- | --- | --- | --- | --- | --- | --- | --- | --- | --- | --- | --- | --- | --- | --- |
| C[S+](CCC(N)C(=O)[O-])C[C@H]1O[C@@H](n2cnc3c(N)ncnc32)[C@H](O)[C@@H]1O.O=S(=O)(O)O.O=S(=O)(O)O.[Ca+2].[Cl-].[Cl-] (stereo partly shown) [SAMe•2.0H2SO4•1.0CaCl2] | 95.9% | 94.9% | 93.8% | 91.2% | 87.8% | 97.2% | 0.35% | 89.3% | 85.3% | 83.3% | 79.3% | 75.3% | 97.2% | 0.16% | 0.29% | 0.35% | 0.68% | 0.82% | 0.17% | 0.42% | stability test percentage value (active ingredient %), 90 days [5]: 0.92%; stability test percentage value (active ingredient %), 120 days [5]: 1.52%; stability test percentage value (active ingredient %), 180 days [5]: 2.70% |
| C[S+](CCC(N)C(=O)[O-])C[C@H]1O[C@@H](n2cnc3c(N)ncnc32)[C@H](O)[C@@H]1O.O=S(=O)(O)O.O=S(=O)(O)O.[Cl-].[Cl-].[Mg+2] (stereo partly shown) [SAMe•2.0H2SO4•1.0MgCl2] | 96.3% | 95.3% | 93.3% | 91.0% | 88.0% | 97.2% | 0.52% | 89.3% | 85.3% | 83.3% | 89.3% | 75.3% | 97.2% | 0.10% | 0.18% | 0.25% | 0.49% | 0.62% | 0.19% | 0.34% | stability test percentage value (active ingredient %), 90 days [5]: 0.82%; stability test percentage value (active ingredient %), 120 days [5]: 1.12%; stability test percentage value (active ingredient %), 180 days [5]: 1.87% |
